Results as given in PubChem BioAssay AID1259407 (Chemical Carcinogenesis Research Information System (CCRIS), 2018).
Activity calls are given as the source filed them. No rule for the calls is given here.

Test system: CCRIS mutagenicity, Ames/micronucleus/aberration tests
Assay: CCRIS mutagenicity studies

Measured: mutagenic call

Oc1ccccc1
active: End Point: IN VITRO CHROMOSOMAL ABERRATIONS, Test System: CHO CELLS, Metabolic Activation: RAT, LIVER, S-9, AROCLOR 1254 active; positive | End Point: IN VITRO MICRONUCLEUS, Test System: CHINESE HAMSTER OVARY (CHO-K5), Metabolic Activation: NONE active; positive; no statistical analysis was performed | End Point: IN VITRO MICRONUCLEUS, Test System: CHINESE HAMSTER OVARY (CHO-K5), Metabolic Activation: RAT, LIVER, S-9, PHENOBARBITAL AND BETA-NAPHTHOFLAVONE active; positive | End Point: IN VITRO MICRONUCLEUS, Test System: CHL/IU CELLS, Metabolic Activation: RAT, LIVER, S-9, PHENOBARBITAL AND 5,6-BENZOFLAVONE active; positive | End Point: IN VITRO MICRONUCLEUS, Test System: CHO CELLS, Metabolic Activation: RAT, LIVER, S-9, AROCLOR 1254 active; positive | End Point: In vivo micronucleus, Test System: Bone marrow cells, Species: Mouse, Strain/Sex: CD1/Female, Route: Intraperitoneal active; positive (highest dose only) | End Point: In vivo micronucleus, Test System: Bone marrow cells, Species: Mouse, Strain/Sex: CD1/Male, Route: Intraperitoneal active; positive (highest dose only) | Test System: AMES SALMONELLA TYPHIMURIUM, Strain/Indicator: TA100, Metabolic Activation: RAT, LIVER, S-9, PCB, Method: FLUCTUATION TEST active; positive | Test System: MOUSE LYMPHOMA, Strain/Indicator: L5178Y (TK+/TK-), Metabolic Activation: NONE, Method: SUSPENSION/PLATE active; positive | Test System: MOUSE LYMPHOMA, Strain/Indicator: L5178Y (TK+/TK-), Metabolic Activation: RAT, LIVER, S-9, AROCLOR 1254, Method: SUSPENSION/PLATE active; positive | Test System: UDS SHE CELLS, Strain/Indicator: THY INCORP, Metabolic Activation: NONE, Method: LIQUID SCINTILLATION COUNTING active; positive
inactive: End Point: IN VITRO CHROMOSOMAL ABERRATIONS, Test System: CHO CELLS, Metabolic Activation: NONE inactive; negative | End Point: IN VITRO CHROMOSOMAL ABERRATIONS, Test System: V79 CELLS, Metabolic Activation: NONE inactive; negative; effect more pronounced at ph 8 but no significant increase | Test System: AMES SALMONELLA TYPHIMURIUM, Strain/Indicator: TA97, Metabolic Activation: NONE, Method: PREINCUBATION inactive; negative | Test System: AMES SALMONELLA TYPHIMURIUM, Strain/Indicator: TA97, Metabolic Activation: RAT, LIVER, S-9, AROCLOR 1254, Method: PREINCUBATION inactive; negative | Test System: AMES SALMONELLA TYPHIMURIUM, Strain/Indicator: TA98, Metabolic Activation: NONE, Method: FLUCTUATION (MICROTITER) inactive; negative | Test System: AMES SALMONELLA TYPHIMURIUM, Strain/Indicator: TA98, Metabolic Activation: NONE, Method: PREINCUBATION inactive; negative | Test System: AMES SALMONELLA TYPHIMURIUM, Strain/Indicator: TA98, Metabolic Activation: RAT LIVER S-9, AROCLOR 1254, Method: FLUCTUATION (MICROTITER) inactive; negative | Test System: AMES SALMONELLA TYPHIMURIUM, Strain/Indicator: TA98, Metabolic Activation: RAT LIVER S-9, PHENOBARBITAL AND BETA-NAPHTHOFLAVONE, Method: PREINCUBATION inactive; negative | Test System: AMES SALMONELLA TYPHIMURIUM, Strain/Indicator: TA98, Metabolic Activation: RAT, LIVER, S-9, AROCLOR 1254, Method: PREINCUBATION inactive; negative | Test System: AMES SALMONELLA TYPHIMURIUM, Strain/Indicator: TA98, Metabolic Activation: RAT, LIVER, S-9, AROCLOR 1254, Method: STANDARD PLATE inactive; negative | Test System: AMES SALMONELLA TYPHIMURIUM, Strain/Indicator: TA100, Metabolic Activation: NONE, Method: FLUCTUATION TEST inactive; negative | Test System: AMES SALMONELLA TYPHIMURIUM, Strain/Indicator: TA100, Metabolic Activation: NONE, Method: PREINCUBATION inactive; negative | Test System: AMES SALMONELLA TYPHIMURIUM, Strain/Indicator: TA100, Metabolic Activation: RAT LIVER S-9, PHENOBARBITAL AND BETA-NAPHTHOFLAVONE, Method: PREINCUBATION inactive; negative | Test System: AMES SALMONELLA TYPHIMURIUM, Strain/Indicator: TA100, Metabolic Activation: RAT, LIVER, S-9, AROCLOR 1254, Method: PREINCUBATION inactive; negative | Test System: AMES SALMONELLA TYPHIMURIUM, Strain/Indicator: TA102, Metabolic Activation: NONE, Method: PREINCUBATION inactive; negative | Test System: AMES SALMONELLA TYPHIMURIUM, Strain/Indicator: TA102, Metabolic Activation: RAT, LIVER, S-9, AROCLOR 1254, Method: PREINCUBATION inactive; negative | Test System: AMES SALMONELLA TYPHIMURIUM, Strain/Indicator: TA104, Metabolic Activation: NONE, Method: PREINCUBATION inactive; negative | Test System: AMES SALMONELLA TYPHIMURIUM, Strain/Indicator: TA104, Metabolic Activation: RAT, LIVER, S-9, AROCLOR 1254, Method: PREINCUBATION inactive; negative | Test System: AMES SALMONELLA TYPHIMURIUM, Strain/Indicator: TA1535, Metabolic Activation: NONE, Method: PREINCUBATION inactive; negative | Test System: AMES SALMONELLA TYPHIMURIUM, Strain/Indicator: TA1535, Metabolic Activation: RAT LIVER S-9, PHENOBARBITAL AND BETA-NAPHTHOFLAVONE, Method: PREINCUBATION inactive; negative | Test System: AMES SALMONELLA TYPHIMURIUM, Strain/Indicator: TA1535, Metabolic Activation: RAT, LIVER, S-9, AROCLOR 1254, Method: PREINCUBATION inactive; negative | Test System: AMES SALMONELLA TYPHIMURIUM, Strain/Indicator: TA1535, Metabolic Activation: RAT, LIVER, S-9, AROCLOR 1254, Method: STANDARD PLATE inactive; negative | Test System: AMES SALMONELLA TYPHIMURIUM, Strain/Indicator: TA1537, Metabolic Activation: NONE, Method: FLUCTUATION (MICROTITER) inactive; negative | Test System: AMES SALMONELLA TYPHIMURIUM, Strain/Indicator: TA1537, Metabolic Activation: NONE, Method: PREINCUBATION inactive; negative | Test System: AMES SALMONELLA TYPHIMURIUM, Strain/Indicator: TA1537, Metabolic Activation: RAT LIVER S-9, AROCLOR 1254, Method: FLUCTUATION (MICROTITER) inactive; negative | Test System: AMES SALMONELLA TYPHIMURIUM, Strain/Indicator: TA1537, Metabolic Activation: RAT LIVER S-9, PHENOBARBITAL AND BETA-NAPHTHOFLAVONE, Method: PREINCUBATION inactive; negative | Test System: AMES SALMONELLA TYPHIMURIUM, Strain/Indicator: TA7001, Metabolic Activation: NONE, Method: FLUCTUATION (MICROTITER) inactive; negative | Test System: AMES SALMONELLA TYPHIMURIUM, Strain/Indicator: TA7001, Metabolic Activation: RAT LIVER S-9, AROCLOR 1254, Method: FLUCTUATION (MICROTITER) inactive; negative | Test System: AMES SALMONELLA TYPHIMURIUM, Strain/Indicator: TA7002, Metabolic Activation: NONE, Method: FLUCTUATION (MICROTITER) inactive; negative | Test System: AMES SALMONELLA TYPHIMURIUM, Strain/Indicator: TA7002, Metabolic Activation: RAT LIVER S-9, AROCLOR 1254, Method: FLUCTUATION (MICROTITER) inactive; negative | Test System: AMES SALMONELLA TYPHIMURIUM, Strain/Indicator: TA7003, Metabolic Activation: NONE, Method: FLUCTUATION (MICROTITER) inactive; negative | Test System: AMES SALMONELLA TYPHIMURIUM, Strain/Indicator: TA7003, Metabolic Activation: RAT LIVER S-9, AROCLOR 1254, Method: FLUCTUATION (MICROTITER) inactive; negative | Test System: AMES SALMONELLA TYPHIMURIUM, Strain/Indicator: TA7004, Metabolic Activation: NONE, Method: FLUCTUATION (MICROTITER) inactive; negative | Test System: AMES SALMONELLA TYPHIMURIUM, Strain/Indicator: TA7004, Metabolic Activation: RAT LIVER S-9, AROCLOR 1254, Method: FLUCTUATION (MICROTITER) inactive; negative | Test System: AMES SALMONELLA TYPHIMURIUM, Strain/Indicator: TA7005, Metabolic Activation: NONE, Method: FLUCTUATION (MICROTITER) inactive; negative | Test System: AMES SALMONELLA TYPHIMURIUM, Strain/Indicator: TA7005, Metabolic Activation: RAT LIVER S-9, AROCLOR 1254, Method: FLUCTUATION (MICROTITER) inactive; negative | Test System: AMES SALMONELLA TYPHIMURIUM, Strain/Indicator: TA7006, Metabolic Activation: NONE, Method: FLUCTUATION (MICROTITER) inactive; negative | Test System: AMES SALMONELLA TYPHIMURIUM, Strain/Indicator: TA7006, Metabolic Activation: RAT LIVER S-9, AROCLOR 1254, Method: FLUCTUATION (MICROTITER) inactive; negative | Test System: CHINESE HAMSTER V-79, Strain/Indicator: V-79/6-THIOGUANINE, Metabolic Activation: NONE inactive; negative | Test System: E.COLI, Strain/Indicator: WP2UVRA, Metabolic Activation: NONE, Method: PREINCUBATION inactive; negative | Test System: E.COLI, Strain/Indicator: WP2UVRA, Metabolic Activation: RAT LIVER S-9, PHENOBARBITAL AND BETA-NAPHTHOFLAVONE, Method: PREINCUBATION inactive; negative
